# Source: patent publication US9980927B2, “Use of tapentadol for inhibiting and/or treating depression and anxiety” (Gruenenthal GmbH, priority 2011, dated 2018)
# Tests used:
# [1] = system: patients with inadequately managed, severe chronic low back pain with or without a neuropathic pain component; test: Patient Global Impression of Change (PGIC), same trial; type: in vivo, human patients
# From the text: (§1) This was a multicenter, multinational, open-label, effectiveness phase IIIb trial to evaluate effectiveness and safety of tapentadol prolonged release treatment in patients with inadequately managed, severe chronic low back pain with or without a neuropathic pain component. Patients taking WHO Step II analgesics discontinued those analgesics before starting study medication; patients taking Step I analgesics and/or centrally acting co-analgesics continued on the same dose. […] All patients received tapentadol prolonged release (50-250 mg bid) for up to 12 weeks (5-week titration period and a 7-week maintenance period). Tapentadol immediate release (IR) 50 mg (twice a day, hours apart) was permitted (combined total daily dose of tapentadol prolonged release and tapentadol IR, 500 mg/day). The primary efficacy endpoint was the change from Baseline to Week 6 (when tapentadol prolonged release doses were stable) in average pain intensity on the 11-point NRS-3 using the last observation carried forward (LOCF) for imputing missing scores. The painDETECT questionnaire was used to evaluate the likelihood of a neuropathic pain component of low back pain; patients were classified as painDETECT “negative,” “unclear,” or “positive.” The population of patients classified as painDETECT negative was limited to approximately 30% of the total population.
# All subjects completed Short Form-36 (SF-36) and EuroQol-5 Dimension (EQ-5D) questionnaires and the Hospital Anxiety and Depression Scale (HADS). The Patient Global Impression of Change (PGIC) and Clinical global impression of change (CGIC) were also used as secondary endpoints. For both tests, patients completed the statement, “since I began trial treatment, I would rate my overall condition as,” using 7 possible responses (“very much worse” to “very much improved”). Adverse events were recorded throughout the trial.
# [2] = system: patients with inadequately managed, severe chronic low back pain with or without a neuropathic pain component; test: Subject satisfaction with previous/new treatment, same trial; type: in vivo, human patients; details: 0.0% at Baseline
# From the text: as §1
smiles,measurement,setting,value
"CC[C@@H](c1cccc(O)c1)[C@@H](C)CN(C)C [tapentadol, (−)-(1R,2R)-3-(3-dimethylamino-1-ethyl-2-methyl-propyl)-phenol]",percentage of patients reporting “very much improved” or “much improved” on the PGIC,[1]; Week 1 (26/172),15.1%
same,percentage of patients reporting “very much improved” or “much improved” on the PGIC,[1]; Week 6 (67/138),48.6%
same,percentage of patients reporting “very much improved” or “much improved” on the PGIC,[1]; Week 12 (61/91),67.1%
same,percentage of patients rating satisfaction with treatment “excellent” or “very good”,[2]; Week 6 (41/138),29.7%
same,percentage of patients rating satisfaction with treatment “excellent” or “very good”,[2]; Week 12 (48/91),52.8%
